Assay results taken from ChEMBL document CHEMBL4002566, “S-substituted 3,5-dinitrophenyl 1,3,4-oxadiazole-2-thiols and tetrazole-5-thiols as highly efficient antitubercular agents” (Eur J Med Chem, 2017).
≈ marks a conversion by molar mass, not a printed value.

Legend:
Type in all cases: functional
Mycobacterium avium [1] = test: Antimycobacterial activity against Mycobacterium avium CNCTC My 330/88 after 21 days by micromethod; details: CNCTC My 330/88, 504 h
[2] = test system: Mycobacterium tuberculosis; test: Antimycobacterial activity against Mycobacterium tuberculosis CNCTC My 331/88 after 14 days by micromethod; details: CNCTC My 331/88, 336 h
Mycobacterium avium [3] = test: Antimycobacterial activity against Mycobacterium avium CNCTC My 330/88 after 14 days by micromethod; details: CNCTC My 330/88, 336 h
Mycobacterium kansasii [4] = test: Antimycobacterial activity against Mycobacterium kansasii CNCTC My 235/80 after 14 days by micromethod; details: CNCTC My 235/80, 336 h
Mycobacterium kansasii [5] = test: Antimycobacterial activity against Mycobacterium kansasii 6509/96 clinical isolate after 14 days by micromethod; details: 6509/96, 336 h
[6] = test system: Mycobacterium tuberculosis; test: Antimycobacterial activity against Mycobacterium tuberculosis CNCTC My 331/88 after 21 days by micromethod; details: CNCTC My 331/88, 504 h
Mycobacterium kansasii [7] = test: Antimycobacterial activity against Mycobacterium kansasii CNCTC My 235/80 after 21 days by micromethod; details: CNCTC My 235/80, 504 h
Mycobacterium kansasii [8] = test: Antimycobacterial activity against Mycobacterium kansasii CNCTC My 235/80 after 7 days by micromethod; details: CNCTC My 235/80, 168 h
Mycobacterium kansasii [9] = test: Antimycobacterial activity against Mycobacterium kansasii 6509/96 clinical isolate after 21 days by micromethod; details: 6509/96, 504 h
Mycobacterium kansasii [10] = test: Antimycobacterial activity against Mycobacterium kansasii 6509/96 clinical isolate after 7 days by micromethod; details: 6509/96, 168 h
Escherichia coli = test: Antibacterial activity against Escherichia coli ATCC 8739 after 24 hrs by broth microdilution method
Klebsiella pneumoniae [11] = test: Antibacterial activity against Klebsiella pneumoniae HK11750/08 after 24 hrs by broth microdilution method
Klebsiella pneumoniae [12] = test: Antibacterial activity against extended spectrum beta-lactamase producing Klebsiella pneumoniae HK14368/08 after 24 hrs by broth microdilution method
Pseudomonas aeruginosa = test: Antibacterial activity against Pseudomonas aeruginosa ATCC 9027 after 24 hrs by broth microdilution method

Compound	MIC (Mycobacterium avium [1]) [µM]	MIC [2] [µM]	MIC (Mycobacterium avium [3]) [µM]	MIC (Mycobacterium kansasii [4]) [µM]	MIC (Mycobacterium kansasii [5]) [µM]	MIC [6] [µM]	MIC (Mycobacterium kansasii [7]) [µM]	MIC (Mycobacterium kansasii [8]) [µM]	MIC (Mycobacterium kansasii [9]) [µM]	MIC (Mycobacterium kansasii [10]) [µM]	MIC (Escherichia coli) [µM]	MIC (Klebsiella pneumoniae [11]) [µM]	MIC (Klebsiella pneumoniae [12]) [µM]	MIC (Pseudomonas aeruginosa) [µM]
O=[N+]([O-])c1cc(-c2nnc(SCc3ccc(Cl)c(Cl)c3)o2)cc(C(F)(F)F)c1	> 250	0.5 (≈ 0.225 µg/mL)	> 250	1 (≈ 0.45 µg/mL)	1 (≈ 0.45 µg/mL)	0.5 (≈ 0.225 µg/mL)	1 (≈ 0.45 µg/mL)	0.5 (≈ 0.225 µg/mL)	1 (≈ 0.45 µg/mL)	0.5 (≈ 0.225 µg/mL)				
GENTAMICIN											0.26	0.26	0.26	1
Nc1cc(-c2nnc(SCc3ccc(Cl)cc3)o2)cc([N+](=O)[O-])c1	250 (≈ 90.7 µg/mL)	250 (≈ 90.7 µg/mL)	250 (≈ 90.7 µg/mL)	250 (≈ 90.7 µg/mL)	250 (≈ 90.7 µg/mL)	250 (≈ 90.7 µg/mL)	250 (≈ 90.7 µg/mL)	250 (≈ 90.7 µg/mL)	250 (≈ 90.7 µg/mL)	250 (≈ 90.7 µg/mL)				
CC(=O)Nc1cc(-c2nnc(SCc3ccc(Br)cc3)o2)cc([N+](=O)[O-])c1	> 500	> 500	> 500	> 500	> 500	> 500	> 500	> 500	> 500	> 500				
CC(=O)Nc1cc(-c2nnc(SCc3ccccc3)o2)cc([N+](=O)[O-])c1	> 1000	> 1000	> 1000	> 1000	> 1000	> 1000	> 1000	> 1000	> 1000	> 1000				
O=[N+]([O-])c1cc(-c2nnc(SCc3ccc(Cl)cc3)o2)cc(C(F)(F)F)c1	> 250	0.5 (≈ 0.208 µg/mL)	> 250	1 (≈ 0.416 µg/mL)	1 (≈ 0.416 µg/mL)	0.5 (≈ 0.208 µg/mL)	1 (≈ 0.416 µg/mL)	1 (≈ 0.416 µg/mL)	1 (≈ 0.416 µg/mL)	1 (≈ 0.416 µg/mL)				
O=[N+]([O-])c1cc(-c2nnc(SCc3ccc(Cl)cc3Cl)o2)cc([N+](=O)[O-])c1	250 (≈ 107 µg/mL)	0.03 (≈ 0.0128 µg/mL)	250 (≈ 107 µg/mL)	0.06 (≈ 0.0256 µg/mL)	0.03 (≈ 0.0128 µg/mL)	0.03 (≈ 0.0128 µg/mL)	0.06 (≈ 0.0256 µg/mL)	0.03 (≈ 0.0128 µg/mL)	0.03 (≈ 0.0128 µg/mL)	0.03 (≈ 0.0128 µg/mL)				
CCCSc1nnc(-c2cc([N+](=O)[O-])cc([N+](=O)[O-])c2)o1	8 (≈ 2.48 µg/mL)	0.25 (≈ 0.0776 µg/mL)	8 (≈ 2.48 µg/mL)	2 (≈ 0.621 µg/mL)	2 (≈ 0.621 µg/mL)	0.5 (≈ 0.155 µg/mL)	2 (≈ 0.621 µg/mL)	1 (≈ 0.31 µg/mL)	4 (≈ 1.24 µg/mL)	1 (≈ 0.31 µg/mL)				
CC(=O)Oc1cc(-c2nnc(SCc3ccc(Cl)c(Cl)c3)o2)cc([N+](=O)[O-])c1	1000 (≈ 440 µg/mL)	1000 (≈ 440 µg/mL)	1000 (≈ 440 µg/mL)	1000 (≈ 440 µg/mL)	1000 (≈ 440 µg/mL)	1000 (≈ 440 µg/mL)	1000 (≈ 440 µg/mL)	1000 (≈ 440 µg/mL)	1000 (≈ 440 µg/mL)	1000 (≈ 440 µg/mL)				
CC(=O)Nc1cc(-c2nnc(SCc3ccc(Cl)cc3)o2)cc([N+](=O)[O-])c1	> 1000	250 (≈ 101 µg/mL)	> 1000	> 1000	> 1000	250 (≈ 101 µg/mL)	> 1000	> 1000	> 1000	> 1000				
CSc1nnc(-c2cc([N+](=O)[O-])cc([N+](=O)[O-])c2)o1	16 (≈ 4.52 µg/mL)	4 (≈ 1.13 µg/mL)	16 (≈ 4.52 µg/mL)	16 (≈ 4.52 µg/mL)	8 (≈ 2.26 µg/mL)	8 (≈ 2.26 µg/mL)	32 (≈ 9.03 µg/mL)	8 (≈ 2.26 µg/mL)	16 (≈ 4.52 µg/mL)	8 (≈ 2.26 µg/mL)				
CC(=O)Nc1cc(-c2nnc(SCc3ccc([N+](=O)[O-])cc3)o2)cc([N+](=O)[O-])c1	> 500	> 500	> 500	> 500	> 500	> 500	> 500	> 500	> 500	> 500				
Nc1cc(-c2nnc(SCc3ccccc3)o2)cc([N+](=O)[O-])c1	250 (≈ 82.1 µg/mL)	250 (≈ 82.1 µg/mL)	250 (≈ 82.1 µg/mL)	250 (≈ 82.1 µg/mL)	250 (≈ 82.1 µg/mL)	250 (≈ 82.1 µg/mL)	250 (≈ 82.1 µg/mL)	250 (≈ 82.1 µg/mL)	250 (≈ 82.1 µg/mL)	250 (≈ 82.1 µg/mL)				
COc1ccc(CSc2nnc(-c3cc([N+](=O)[O-])cc(C(F)(F)F)c3)o2)cc1	> 250	0.5 (≈ 0.206 µg/mL)	> 250	4 (≈ 1.65 µg/mL)	2 (≈ 0.823 µg/mL)	0.5 (≈ 0.206 µg/mL)	4 (≈ 1.65 µg/mL)	2 (≈ 0.823 µg/mL)	2 (≈ 0.823 µg/mL)	1 (≈ 0.411 µg/mL)				
